Results taken from US5508456A, “9-cis tritium-labeled retinoids and intermediates, methods for their synthesis and methods for their use in discovering retinoid X receptor ligands” (Ligand Pharmaceuticals Incorporated, priority 1994, dated 1996).
“Also recorded” adds a separate entry of the source.

Assays:
RARs and RXRs [1] = experiment: Binding to RARs and RXRs (summary over all six receptors); conditions: RARα,β,γ and RXRα,β,γ
RXRs = experiment: Binding to RXRs (summary)
RARs and RXRs [2] = experiment: Binding to and modulating gene expression via RARs and RXRs; conditions: labeled retinoid
RARs and RXRs [3] = conditions: Heyman et al., Cell, 68:397 (1992); cited from earlier work

SMILES | binding to / activity on RARs and RXRs, in words (RARs and RXRs [1]) | binding to / activity on RARs and RXRs, in words (RARs and RXRs [1]; listed as all-trans retinoic acid (ATRA)) | binding to RXRs, in words (RXRs) | binding with, and modulating gene expression from, both RARs and RXRs, in words (RARs and RXRs [2]) | binding to and modulating gene expression via the RARs and RXRs, in words (RARs and RXRs [3]) | binding to / activity on RARs and RXRs, in words (RARs and RXRs [1]; listed as 9-cis retinoic acid)
CC1=C(/C=C/C(C)=C/C=C/C(C)=C/C(=O)O)C(C)(C)CCC1 [ATRA, all-trans retinoic acid] | only binds to the RARs | only active on RARα,β,γ | does not bind to RXRs |  |  | 
[3H]C(/C=C(C)\C=C\C1=C(C)CCCC1(C)C)=C\C(C)=C\C(=O)O [monotritium-labeled 9-cis RA, (2E,4E,6Z,8E)-5-[^3 H]-3,7-Dimethyl-9-(2,6,6-trimethylcyclohexen-1-yl)nona-2,4,6,8-tetraenoic acid] | binds to all the known RARs and RXRs with approximately equal nanomolar affinities |  |  | capable of binding with, and modulating gene expression from, both RARs and RXRs |  | 
CC1=C(/C=C/C(C)=C\C=C\C(C)=C\C(=O)O)C(C)(C)CCC1 [9-cis RA, (2E,4E,6Z,8E)-3.7-Dimethyl-9-(2,6,6-trimethylcyclohexen-1-yl)nona-2.4.6.8-tetraenoic acid] | active on all six known retinoid receptors |  |  |  | capable of binding to and modulating gene expression via the RARs and RXRs | effectively binds to all six receptors; also recorded: binds to the RARs and RXRs with high affinity in a saturable and specific manner
